Experimental data from patent publication US20160074553A1, “DRESSING FOR COMPROMISED WOUND HEALING” (CONSEJO SUPERIOR DE INVESTIGACIONES CIENTIFICAS (CSIC), priority 2012, published 2016).

Assays:
[1] = system: BaF32 cells; experiment: BaF32 proliferation assay; type: cell-based
Method: The measurements of biological activity of the free and encapsulated bemiparin were carried out by cell proliferation assay. For this, BaF32 cells were used, which are a type of lymphocyte B, the cell signalling of which is mediated by the formation of a complex between the bemiparin, the FGF-2 and its corresponding FGFR1c receptor on the cell surface.
Bemiparin forms a ternary complex (FIG. 27) with the fibroblast growth factor (FGF-2) and its corresponding specific membrane receptor (FGFR1c) thus increasing the cellular signalling process corresponding to the proliferation process (Dillen, K., J. Vandervoort, G. Van den Mooter, and A. Ludwig. 2006. Evaluation of ciprofloxacin-loaded Eudragit® RS100 or RL100/PLGA nanoparticles. International Journal of Pharmaceutics 314 (1): 72-82; Eto, T. 2001. A review of the biological properties and clinical implications of adrenomedullin and proadrenomedullin N-terminal 20 peptide (PAMP), hypotensive and vasodilating peptides. Peptides 22 (11): 1693-1711). Given this property, an experiment was designed to verify that the encapsulated bemiparin maintains its biological activity. For this BaF32 cells were used, which are a type of lymphocyte B, the cell signalling of which is modulated by a by a specific bond between the FGF-2 and its corresponding FGFR1c receptor on the cell surface.

[2] = Thermogravimetric analysis (TGA) of polymers and nanoparticle systems; type: physicochemical
Method: The thermogravimetric analysis (TGA) was carried out under N2 atmosphere in TGA Q500 (TA) equipment between 25 and 600° C. with a heating rate of 10° C./min.
The products were characterized by ATR-FTIR (4000 to 600 cm−1), TGA (25 to 600° C. under nitrogen atmosphere at 10° C./min) and DSC (the scan was carried out at a constant rate of 10° C./min, with a N2 flow of 20 ml/min, with temperatures in the range of −20 to 180° C.) to determine the glass transition temperature of the NP. For the calculation of the Tg, the temperature at which half of the difference in specific heat between the vitreous amorphous and elastomer amorphous states is reached is taken, that is, Tg=½ ΔCp. This point corresponds to the inflection point of the change in slope in the thermogram of the second scan.

[3] = donated by ROVI pharmaceutical laboratories; cited from earlier work

## bemiparin
[1]; FGF-2, FGFR1c
  effect on cell proliferation / activity of the FGF-2: promoting cell proliferation
[1]; different concentrations of bemiparin
  dependence of the cellular response on the concentration of bemiparin: independent from the concentration of bemiparin used
[2]
  T10% (temperature at which 10% of the system has been degraded): 120 °C
[3]
  activity of bemiparin as supplied: 111.3 IU/mg
